Experimental data from patent US8742106B2 (Novartis AG, priority 2009, dated 2014).

What was measured:
[1] = molecular target: T1, human orexin 1 receptors (Homo sapiens (Human), UniProt O43613); experiment: Radioligand Binding Assay I ([125I]orexin A competition, cell membranes); conditions: read-out: binding I hOx1R Kd
Experimental: (§1) Radioligand Binding Assay I
(§2) For crude cell membrane preparations, cells (CHO, Chinese hamster ovary or HEK, human embryonic kidney) expressing human orexin 1 or human orexin 2 receptors, were washed with HEPES (10 mM, pH 7.5), scraped off the culture plates with the same buffer, and centrifuged at 4° C. for 5 min at 2500×g. The cell pellet was either stored at −80° C. or used directly. Before the experiments, cell membranes were re-suspended in binding assay buffer (10 mM HEPES, 0.5% (w/v) bovine serum albumin, pH 7.5) by homogenisation with a Polytron homogeniser at 50 Hz for 20 s. Cell membranes were also used as made available by commercial providers.
(§3) In initial saturation experiments (to calculate Bmax), cell homogenates (150 μl) were incubated with 25-300 pM of the radioligand ([^125I]orexin A, 50 μl), 8 concentrations in triplicates in the presence or absence Orexin A (1 μM, 50 μl) to define non specific binding. Bound radioactivity was measured, and data were analysed with the program XLFIT or Graphpad Prism. Protein concentration was determined according to the Bradford/BioRad Protein Assay Kit.
(§4) In competition experiments, cell homogenates (150 μl) were incubated in assay buffer (10 mM HEPES, pH 7.5, 0.5% (w/v) bovine serum albumin, 5 mM MgCl2, 1 mM CaCl2, and tween 0.05%) for 1 h at room temperature with about 100 pM of the radioligand ([^125I]orexin A, 2100 Ci/mmole, 50 μl), and with various concentrations of compounds of the invention (50 μl) in triplicates; non-specific binding was determined in the presence of Orexin A (1 μM). Reactions were terminated by vacuum filtration, 3 washes of ice cold wash buffer (Tris-HCl pH 7.4/10 mM, with NaCl 154 mM).

[2] = molecular target: T2, human orexin 2 receptors (Homo sapiens (Human), UniProt O43614); experiment: as above; conditions: read-out: binding I hOx2R Kd
Experimental: as §1, §2, §3, §4

[3] = molecular target: T1, human orexin 1 receptors; experiment: Calcium Accumulation in Cells (FLIPR), antagonism of orexin A; assay type: cell-based; conditions: antagonism of orexin A, Cheng-Prusoff corrected; read-out: FLIPR hOx1R Ki
[4] = molecular target: T2, human orexin 2 receptors; experiment: as above; assay type: cell-based; conditions: antagonism of orexin A, Cheng-Prusoff corrected; read-out: FLIPR hOx2R Ki
In short: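 Antagonism was measured as block of orexin A-evoked Ca²⁺ fluorescence (FLIPR), with orexin A added one hour after test compound (usually 10^−9–10^−5 M), which was first read alone for agonist activity. Human orexin 2 receptor cells were dye-loaded with 2 μM Fluo4-AM and 0.1 mM probenecid for 1 h.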

[5] = molecular target: T1, human orexin 1 receptors; experiment: Radioligand Binding Assay II ([3H]-SB649868 competition, cell membranes); conditions: read-out: binding II hOx1R Kd
In short: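 Membranes from CHO or HEK cells expressing human orexin 1 or orexin 2 receptors incubated 1 h at room temperature with about 1 nM [3H]-SB649868 and compound (triplicates) in HEPES pH 7.5 buffer with BSA, MgCl2, CaCl2, tween. Nonspecific binding defined with 10 μM almorexant; filtration read-out, Kd reported.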

[6] = molecular target: T2, human orexin 2 receptors; experiment: as above; conditions: read-out: binding II hOx2R Kd
In short: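 Competition binding used membranes from CHO or HEK cells expressing human orexin 2 receptor, incubated 1 h at room temperature with ~1 nM [3H]-SB649868 in 10 mM HEPES pH 7.5, 0.5% BSA, 5 mM MgCl2, 1 mM CaCl2, 0.05% tween. Nonspecific binding was defined with 10 μM almorexant, and bound activity was measured after filtration.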

T2 sequence (O43614 whole entry): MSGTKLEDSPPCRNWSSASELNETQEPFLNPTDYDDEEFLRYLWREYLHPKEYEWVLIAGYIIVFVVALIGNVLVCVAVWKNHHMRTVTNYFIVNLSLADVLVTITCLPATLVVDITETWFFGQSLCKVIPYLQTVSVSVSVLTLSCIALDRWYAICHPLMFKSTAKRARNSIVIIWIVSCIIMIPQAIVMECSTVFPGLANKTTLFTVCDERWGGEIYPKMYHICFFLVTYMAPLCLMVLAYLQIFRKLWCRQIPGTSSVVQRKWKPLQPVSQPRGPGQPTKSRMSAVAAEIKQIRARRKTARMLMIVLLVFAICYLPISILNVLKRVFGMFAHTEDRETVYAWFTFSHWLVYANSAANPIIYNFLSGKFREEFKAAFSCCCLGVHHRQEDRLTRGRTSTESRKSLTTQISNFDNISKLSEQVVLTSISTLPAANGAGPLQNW
T1 sequence (O43613 whole entry): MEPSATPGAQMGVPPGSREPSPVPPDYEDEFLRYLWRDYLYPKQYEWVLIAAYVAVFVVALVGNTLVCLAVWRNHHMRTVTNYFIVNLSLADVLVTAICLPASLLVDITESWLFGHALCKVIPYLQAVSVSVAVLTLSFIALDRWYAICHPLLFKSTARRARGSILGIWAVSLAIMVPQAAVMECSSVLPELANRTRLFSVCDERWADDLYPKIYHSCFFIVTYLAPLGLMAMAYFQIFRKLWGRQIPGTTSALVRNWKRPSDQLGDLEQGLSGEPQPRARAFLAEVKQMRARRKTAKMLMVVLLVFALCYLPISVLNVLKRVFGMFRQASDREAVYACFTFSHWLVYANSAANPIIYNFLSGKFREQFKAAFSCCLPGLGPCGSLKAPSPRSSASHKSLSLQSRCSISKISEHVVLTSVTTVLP

SMILES | Kd [1] [nM] | Kd [2] [nM] | Ki [3] [nM] | Ki [4] [nM] | melting point [°C] | Kd [5] [nM] | Kd [6] [nM]
Cn1nc(-c2ccccc2)c2c(C(F)(F)F)cc(OCC(=O)N[C@H]3CCc4ccccc43)nc21 [Example 1.3, (S)—N-(2,3-dihydro-1H-inden-1-yl)-2-(1-methyl-3-phenyl-4-(trifluoromethyl)-1H-pyrazolo[3,4-b]pyridin-6-yloxy)acetamide] | 348 | 128 | 211 | 69 | 203 to 205.2 | – | –
COc1ccc([C@H](C)NC(=O)COc2cc(C(F)(F)F)c3c(-c4ccccc4)nn(C)c3n2)cc1 [Example 1.4, (S)—N-(1-(4-methoxyphenyl)ethyl)-2-(1-methyl-3-phenyl-4-(trifluoromethyl)-1H-pyrazolo[3,4-b]pyridin-6-yloxy)acetamide] | 8 | 4 | 14 | 2 | 172 to 174 | 7 | 3
C[C@H](CNC(=O)COc1cc(C(F)(F)F)c2c(-c3ccccc3)nn(C)c2n1)c1ccccc1 [Example 1.5, (S)-2-(1-methyl-3-phenyl-4-(trifluoromethyl)-1H-pyrazolo[3,4-b]pyridin-6-yloxy)-N-(2-phenylpropyl)acetamide] | 1150 | 76 | 870 | 36 | 91 to 93 | – | –
Cc1n[nH]c(C)c1[C@H](C)NC(=O)COc1cc(C(F)(F)F)c2c(-c3ccccc3)nn(C)c2n1 [Example 1.6, (S)—N-(1-(3,5-dimethyl-1H-pyrazol-4-yl)ethyl)-2-(1-methyl-3-phenyl-4-(trifluoromethyl)-1H-pyrazolo[3,4-b]pyridin-6-yloxy)acetamide] | – | – | – | – | 145 to 147 | – | –
COc1ccc(CNC(=O)COc2cc(C(F)(F)F)c3c(-c4ccccc4)nn(C)c3n2)cc1 [Example 1.41, N-(4-methoxybenzyl)-2-(1-methyl-3-phenyl-4-(trifluoromethyl)-1H-pyrazolo[3,4-b]pyridin-6-yloxy)acetamide] | 1240 | 410 | 800 | 83 | – | – | –
COc1ccc(C(C)NC(=O)COc2cc(C(F)(F)F)c3c(-c4ccccc4)nn(C)c3n2)cc1 (stereo not shown) [Example 1.45, N-(1-(4-methoxyphenyl)ethyl)-2-(1-methyl-3-phenyl-4-(trifluoromethyl)-1H-pyrazolo[3,4-b]pyridin-6-yloxy)acetamide] | 32 | 7 | 29 | 2 | – | – | –
COc1cccc(C(C)NC(=O)COc2cc(C(F)(F)F)c3c(-c4ccccc4)nn(C)c3n2)c1 (stereo not shown) [Example 1.46, N-(1-(3-methoxyphenyl)ethyl)-2-(1-methyl-3-phenyl-4-(trifluoromethyl)-1H-pyrazolo[3,4-b]pyridin-6-yloxy)acetamide] | 42 | 101 | 20 | 26 | – | – | –
Cc1ccc(-c2nn(C)c3nc(OCC(=O)N[C@@H](C)c4ccccc4)cc(C(F)(F)F)c23)cc1 [Example 1.48, (S)-2-(1-methyl-3-p-tolyl-4-(trifluoromethyl)-1H-pyrazolo[3,4-b]pyridin-6-yloxy)-N-(1-phenylethyl)acetamide] | 490 | 212 | 178 | 75 | – | – | –
COc1ccccc1-c1nn(C)c2nc(OCC(=O)N[C@@H](C)c3ccccc3)cc(C(F)(F)F)c12 [Example 1.49, (S)-2-(3-(2-methoxyphenyl)-1-methyl-4-(trifluoromethyl)-1H-pyrazolo[3,4-b]pyridin-6-yloxy)-N-(1-phenylethyl)acetamide] | 6 | 715 | 15 | 243 | – | – | –
C[C@H](NC(=O)COc1cc(C(F)(F)F)c2c(-c3cccc(Br)c3)nn(C)c2n1)c1ccccc1 [Example 1.58, (S)-2-(3-(3-bromophenyl)-1-methyl-4-(trifluoromethyl)-1H-pyrazolo[3,4-b]pyridin-6-yloxy)-N-(1-phenylethyl)acetamide] | 170 | 436 | 77 | 201 | – | – | –
Cn1nc(-c2ccccc2F)c2c(C(F)(F)F)cc(OCC(=O)N[C@H]3CCc4ccccc43)nc21 [Example 1.60, (S)-N-(2,3-dihydro-1H-inden-1-yl)-2-(3-(2-fluorophenyl)-1-methyl-4-(trifluoromethyl)-1H-pyrazolo[3,4-b]pyridin-6-yloxy)acetamide] | 418 | 144 | 236 | 36 | – | – | –
Cn1nc(-c2cccc(F)c2)c2c(C(F)(F)F)cc(OCC(=O)N[C@H]3CCc4ccccc43)nc21 [Example 1.61, (S)-N-(2,3-dihydro-1H-inden-1-yl)-2-(3-(3-fluorophenyl)-1-methyl-4-(trifluoromethyl)-1H-pyrazolo[3,4-b]pyridin-6-yloxy)acetamide] | 204 | 89 | 117 | 33 | – | – | –
COc1ccc(C(C)NC(=O)COc2cc(C(F)(F)F)c3c(-c4ccccc4)nn(C)c3n2)cn1 (stereo not shown) [Example 1.67, N-(1-(6-methoxypyridin-3-yl)ethyl)-2-(1-methyl-3-phenyl-4-(trifluoromethyl)-1H-pyrazolo[3,4-b]pyridin-6-yloxy)acetamide] | 46 | 20 | 27 | 2 | – | – | –
Cc1nn(C)c(C)c1C(C)NC(=O)COc1cc(C(F)(F)F)c2c(-c3ccccc3)nn(C)c2n1 (stereo not shown) [Example 1.70, 2-(1-methyl-3-phenyl-4-(trifluoromethyl)-1H-pyrazolo[3,4-b]pyridin-6-yloxy)-N-(1-(1,3,5-trimethyl-1H-pyrazol-4-yl)ethyl)acetamide] | 26 | 50 | 8 | 10 | – | – | –
COc1ccc([C@H](C)NC(=O)COc2cc(C)c3c(C4CC4)nn(C)c3n2)cc1 [Example 1.71, (S)-2-(3-cyclopropyl-1,4-dimethyl-1H-pyrazolo[3,4-b]pyridin-6-yloxy)-N-(1-(4-methoxyphenyl)ethyl)acetamide] | 105 | 63 | 145 | 88 | – | – | –
Cc1ccc(C(C)NC(=O)COc2cc(C(F)(F)F)c3c(-c4ccccc4)nn(C)c3n2)cn1 (stereo not shown) [Example 1.77, 2-(1-methyl-3-phenyl-4-(trifluoromethyl)-1H-pyrazolo[3,4-b]pyridin-6-yloxy)-N-(1-(6-methylpyridin-3-yl)ethyl)acetamide] | 161 | 87 | 74 | 21 | – | – | –
C[C@H](NC(=O)COc1ccc2c(-c3ccccc3)nn(C)c2n1)c1ccccc1 [Example 2.1, (S)-2-(1-methyl-3-phenyl-1H-pyrazolo[3,4-b]pyridin-6-yloxy)-N-(1-phenylethyl)acetamide] | – | – | 492 | 865 | 55 to 56 | – | –
C[C@H](NC(=O)COc1cc(C(F)(F)F)c2c(-c3ccccc3)cn(C)c2n1)c1ccccc1 [Example 6.77, (S)-2-(1-methyl-3-phenyl-4-(trifluoromethyl)-1H-pyrrolo[2,3-b]pyridin-6-yloxy)-N-(1-phenylethyl)acetamide] | 501 | 240 | 148 | 59 | – | – | –
